The record followed here is PMC7699256, “In Silico Analysis and In Vitro Characterization of the Bioactive Profile of Three Novel Peptides Identified from 19 kDa α-Zein Sequences of Maize” (Molecules, 2020).

In the experiment the target is T1, angiotensin-converting enzyme (ACE) (Homo sapiens, UniProt P12821).
T1 construct: purchased Sigma-Aldrich CS0002
Description: ACE inhibition assay (ACE Activity Assay kit, fluorogenic substrate). In kind it is biochemical. How it is done: ACE inhibitory activity was evaluated using the ACE Activity Assay test (Sigma-Aldrich CS0002, Saint Louis, MI, USA). This assay is based on the hydrolysis of angiotensin I by ACE to yield active angiotensin II. This test uses a synthetic fluorogenic peptide as the substrate, and the resulting fluorescence is proportional to ACE activity. Briefly, all reagents were diluted in the assay buffer, according to the manufacturer’s instructions. A total of 10 µL of peptide sample and positive control (captopril PHR1307, Sigma-Aldrich, Saint Louis, MI, USA), diluted in assay buffer at five different concentrations, and negative control (assay buffer) were pipetted into the wells of a 96-well black opaque plate. Then, 40 µL of ACE, provided in the kit, was added to sample and control wells. Sample blanks consisted of 50 µL of assay buffer. A standard curve was prepared in 100 µL assay buffer per well ranging from 0 to 8 nmol for calculating enzymatic activity. Subsequently, 50 µL of fluorogenic substrate warmed to 37 °C was added to experimental, control and blank sample wells. The reaction was carried out at 37 °C and fluorescence was read every minute for 5 min in a microplate reader (Biotek Synergy HTX, Winooski, VT, USA). The absorbance of excitation and emission were set at 320 nm and 405 nm, respectively. All determinations were done in duplicate. Linear regressions were determined to calculate the enzymatic activity for each sample dose.
One unit is defined as the amount of enzyme that releases one nmol of fluorescent substrate in 1 min at 37 °C. The results were expressed as milliunits of enzyme (mU). Finally, the IC50 of each peptide sample and captopril was determined using regression analysis of the corresponding dose–response curves. […] This value was expressed as µM.

[1] abbreviates: fluorogenic substrate, 37 °C, fluorescence (ex 320/em 405 nm) every minute for 5 min, five concentrations, value ± SD, n = 2, read-out: IC50 for ACE inhibition.
Setting [2] is: own IC50 values converted to mg/mL for comparison with the literature, read-out: IC50 for ACE inhibition expressed in mg/mL (converted).

Read-outs that look alike come from different tables or passages of the source. No end group written: not given here.

T1 sequence (P12821 30-1306, species assumed): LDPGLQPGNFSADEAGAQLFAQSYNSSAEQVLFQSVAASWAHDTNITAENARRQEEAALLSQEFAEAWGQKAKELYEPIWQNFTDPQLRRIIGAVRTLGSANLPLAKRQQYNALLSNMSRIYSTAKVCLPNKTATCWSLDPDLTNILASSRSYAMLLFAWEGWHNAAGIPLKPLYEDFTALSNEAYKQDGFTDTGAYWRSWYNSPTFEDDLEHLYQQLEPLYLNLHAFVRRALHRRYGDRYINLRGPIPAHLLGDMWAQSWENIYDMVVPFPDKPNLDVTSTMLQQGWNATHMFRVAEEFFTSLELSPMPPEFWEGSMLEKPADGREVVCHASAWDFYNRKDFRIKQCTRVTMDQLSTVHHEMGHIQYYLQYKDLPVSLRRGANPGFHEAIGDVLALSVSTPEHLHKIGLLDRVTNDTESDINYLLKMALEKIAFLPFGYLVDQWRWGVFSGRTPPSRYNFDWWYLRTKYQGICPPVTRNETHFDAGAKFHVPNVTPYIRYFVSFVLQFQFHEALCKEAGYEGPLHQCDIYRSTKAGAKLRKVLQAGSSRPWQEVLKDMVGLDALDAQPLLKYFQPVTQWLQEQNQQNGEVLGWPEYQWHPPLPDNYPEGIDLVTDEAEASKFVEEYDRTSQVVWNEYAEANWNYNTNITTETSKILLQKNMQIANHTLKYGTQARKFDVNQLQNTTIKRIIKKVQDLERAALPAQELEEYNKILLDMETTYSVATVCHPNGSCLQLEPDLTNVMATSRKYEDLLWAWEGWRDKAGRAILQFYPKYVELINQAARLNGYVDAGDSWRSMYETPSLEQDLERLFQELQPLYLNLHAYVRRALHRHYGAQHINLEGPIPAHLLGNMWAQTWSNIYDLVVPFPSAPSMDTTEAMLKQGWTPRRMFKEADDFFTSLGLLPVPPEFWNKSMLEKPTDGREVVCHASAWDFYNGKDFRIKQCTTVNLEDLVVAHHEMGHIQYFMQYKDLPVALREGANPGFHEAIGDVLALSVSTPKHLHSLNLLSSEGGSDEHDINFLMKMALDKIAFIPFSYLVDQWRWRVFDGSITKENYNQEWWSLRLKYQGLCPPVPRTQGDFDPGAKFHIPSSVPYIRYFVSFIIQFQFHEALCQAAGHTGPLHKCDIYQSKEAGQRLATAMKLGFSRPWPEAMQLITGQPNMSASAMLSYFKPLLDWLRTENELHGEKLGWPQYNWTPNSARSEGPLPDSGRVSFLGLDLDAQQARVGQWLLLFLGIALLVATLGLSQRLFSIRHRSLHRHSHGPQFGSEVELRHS

Take AYLQAQQLLPFNQLVRSPAA-NH2 [19ZP3]: the IC50 runs as follows: under setting [1], 202 ± 0.63 µM; under setting [2], 202 µM.
The matching figures for FNQLAALNSAAYLQQQQLLPFSQLA-NH2 [19ZP1]: 14.19 ± 0.12 µM and 14.4 µM.
With QLADVSPAAFLTQQQLLPFYLHAM-NH2 [19ZP2], the IC50 by setting is: under setting [1], 174 ± 49.6 µM; under setting [2], 174 µM.
